Assay results as given in patent US20240116985A1, “STAPLED PEPTIDES AND METHODS THEREOF” (priority 2020, published 2024).
≈ marks a conversion by molar mass, not a printed value. Where two headings read alike, the source gives them in different places.

Legend:
[1] = target: T1, full-length beta-Catenin (Uniprot ID P35222) (Homo sapiens, UniProt P35222); assay: Fluorescence polarization IC50 (beta-catenin / 5FAM-TCF4 10-53 competition); assay type: binding
T1 construct: 10 nM full-length beta-Catenin (Uniprot ID P35222)
T1 sequence (P35222 1-781): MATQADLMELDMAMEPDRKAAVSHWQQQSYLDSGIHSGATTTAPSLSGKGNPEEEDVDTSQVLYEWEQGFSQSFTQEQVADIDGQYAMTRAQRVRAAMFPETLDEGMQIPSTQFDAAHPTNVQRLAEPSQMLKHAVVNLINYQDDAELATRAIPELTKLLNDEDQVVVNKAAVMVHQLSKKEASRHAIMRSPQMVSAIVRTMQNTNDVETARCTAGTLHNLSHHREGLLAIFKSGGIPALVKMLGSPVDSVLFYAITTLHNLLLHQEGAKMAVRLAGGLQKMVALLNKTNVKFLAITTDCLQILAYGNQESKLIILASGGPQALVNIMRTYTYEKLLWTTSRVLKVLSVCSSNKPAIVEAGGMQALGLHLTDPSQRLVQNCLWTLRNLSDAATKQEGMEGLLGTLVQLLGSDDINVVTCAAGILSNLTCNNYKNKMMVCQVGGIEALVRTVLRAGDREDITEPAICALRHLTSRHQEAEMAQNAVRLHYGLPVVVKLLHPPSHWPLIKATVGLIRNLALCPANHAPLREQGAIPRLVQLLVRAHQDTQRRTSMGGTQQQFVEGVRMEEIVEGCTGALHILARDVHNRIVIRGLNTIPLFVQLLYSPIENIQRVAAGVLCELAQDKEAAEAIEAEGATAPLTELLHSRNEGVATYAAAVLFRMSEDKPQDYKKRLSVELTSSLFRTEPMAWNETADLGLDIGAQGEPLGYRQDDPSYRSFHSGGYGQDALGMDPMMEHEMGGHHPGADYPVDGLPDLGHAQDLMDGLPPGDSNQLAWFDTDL

[2] = CHI Log D procedure; assay type: physicochemical; details: for CHI Log D: pH 7.4
[3] = Solubility in PBS; assay type: physicochemical
Outline: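 HPLC quantitation of peptide remaining in the PBS supernatant after ultracentrifugation, referenced to a 50 μM solution in DMSO.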

[4] = fluorescence polarization, read-out: beta-Catenin FP IC50
[5] = read-out: beta-Catenin FP IC50, fluorescence polarization

IC50 [1, 4] [nM] | IC50 ([1]; read-out: FP EC50) [nM] | CHI Log D [2] | Solubility [3] [µM] | chromatographic logD ([2]; pH 7.4, CHI Log D) | Solubility ([3]; Solubility (uM)) [µM] | IC50 ([1]; read-out: bCat FP IC50) [nM] | chromatographic logD ([2]; pH 7.4, LogD) | SMILES | IC50 [1, 5] [nM]
33 | 33 | 2.635 | 21 (≈ 39.4 µg/mL) |  |  |  |  | CC(=O)N1CCC[C@]12CC=CCCCC1(CCCC=CCCCCCC[C@@](C)(C(=O)N[C@@H](Cc3ccccc3)C(=O)N[C@@H](Cc3csc4ccccc34)C(=O)N[C@@H](Cc3c[nH]cn3)C(N)=O)NC(=O)[C@H](CC(N)=O)NC(=O)[C@H](Cc3ccccc3)NC(=O)[C@H](C)NC(=O)[C@H](C)NC(=O)[C@H](CC(=O)O)NC(=O)[C@H](CC(=O)O)NC1=O)NC(=O)[C@H](CCC(C)C)NC(=O)[C@H](CC(=O)O)NC2=O (stereo partly drawn) [I-584, Ac-PL3-Asp-hLeu-B5-Asp-Asp-Ala-Ala-Phe-Asn-S8-Phe-BztA-His-NH2] | 
845 |  |  |  | 2.24 | 49 (≈ 95.4 µg/mL) |  |  | CC[C@H](C)[C@@H]1NC(=O)[C@H](CC(=O)O)NC(=O)[C@]2(CC=CCCCC3(CCCC=CCCCCCC[C@@](C)(C(=O)N[C@@H](Cc4ccccc4)C(=O)N[C@@H](Cc4csc5ccccc45)C(=O)N[C@@H](CCC(N)=O)C(N)=O)NC(=O)[C@H](CCC(N)=O)NC(=O)[C@H](Cc4ccccc4)NC(=O)[C@H](C)NC(=O)[C@H](C)NC(=O)[C@H](CCC(=O)O)NC(=O)[C@H](CC(=O)O)NC3=O)NC1=O)CCCN2C(=O)c1cccnc1 (stereo partly drawn) [I-598, Nic-PL3-Asp-Ile-B5-Asp-Glu-Ala-Ala-Phe-Gln-S8-Phe-BztA-Gln-NH2] | 
138 |  |  |  | 2.42 | 45 (≈ 87.6 µg/mL) |  |  | CC[C@H](C)[C@@H]1NC(=O)[C@H](CC(=O)O)NC(=O)[C@]2(CC=CCCCC3(CCCC=CCCCCCC[C@@](C)(C(=O)N[C@@H](Cc4ccccc4)C(=O)N[C@@H](Cc4csc5ccccc45)C(=O)N[C@@H](CCC(N)=O)C(N)=O)NC(=O)[C@H](CCC(N)=O)NC(=O)[C@H](Cc4ccccc4)NC(=O)[C@H](C)NC(=O)[C@H](C)NC(=O)[C@H](CCC(=O)O)NC(=O)[C@H](CC(=O)O)NC3=O)NC1=O)CCCN2C(=O)c1ccccn1 (stereo partly drawn) [I-599, Pic-PL3-Asp-Ile-B5-Asp-Glu-Ala-Ala-Phe-Gln-S8-Phe-BztA-Gln-NH2] | 
392 |  |  | 10 (≈ 18.8 µg/mL) | 2.62 |  |  |  | CC[C@H](C)[C@@H]1NC(=O)[C@H](CC(=O)O)NC(=O)[C@]2(CC=CCCCC3(CCCC=CCCCCCC[C@@](C)(C(=O)N[C@@H](Cc4ccccc4)C(=O)N[C@@H](Cc4csc5ccccc45)C(=O)N[C@@H](CCC(N)=O)C(N)=O)NC(=O)[C@H](CCC(N)=O)NC(=O)[C@H](Cc4ccccc4)NC(=O)[C@H](C)NC(=O)[C@H](C)NC(=O)[C@H](CCC(N)=O)NC(=O)[C@H](CC(=O)O)NC3=O)NC1=O)CCCN2C(C)=O (stereo partly drawn) [I-603, Ac-PL3-Asp-Ile-B5-Asp-Gln-Ala-Ala-Phe-Gln-S8-Phe-BztA-Gln-NH2] | 
692 | 692 | 2.609 | 10 (≈ 19.1 µg/mL) |  |  |  |  | CC[C@H](C)[C@@H]1NC(=O)[C@H](CC(=O)O)NC(=O)[C@]2(CC=CCCCC3(CCCC=CCCCCCC[C@@](C)(C(=O)N[C@@H](Cc4ccccc4)C(=O)N[C@@H](Cc4csc5ccccc45)C(=O)N[C@@H](CCC(N)=O)C(N)=O)NC(=O)[C@H](CCC(N)=O)NC(=O)[C@H](Cc4ccccc4)NC(=O)[C@H](C)NC(=O)[C@H](C)NC(=O)[C@H](CCCNC(N)=O)NC(=O)[C@H](CC(=O)O)NC3=O)NC1=O)CCCN2C(C)=O (stereo partly drawn) [I-604, Ac-PL3-Asp-Ile-B5-Asp-Cit-Ala-Ala-Phe-Gln-S8-Phe-BztA-Gln-NH2] | 
632 | 632 | 2.617 | 10 (≈ 19.1 µg/mL) |  |  |  |  | CC[C@H](C)[C@@H]1NC(=O)[C@H](CC(=O)O)NC(=O)[C@]2(CC=CCCCC3(CCCC=CCCCCCC[C@@](C)(C(=O)N[C@@H](Cc4ccccc4)C(=O)N[C@@H](Cc4csc5ccccc45)C(=O)N[C@@H](CCC(N)=O)C(N)=O)NC(=O)[C@H](CCC(N)=O)NC(=O)[C@H](Cc4ccccc4)NC(=O)[C@H](C)NC(=O)[C@H](C)NC(=O)[C@H](CCCNC(N)=O)NC(=O)[C@H](CC(=O)O)NC3=O)NC1=O)CCCN2C(C)=O (stereo partly drawn) [I-605, Ac-PL3-Asp-Ile-B5-Asp-Cit-Ala-Ala-Phe-Gln-S8-Phe-BztA-Gln-NH2] | 
289 | 289 | 2.412 | 49 (≈ 95.3 µg/mL) |  |  |  |  | CC[C@H](C)[C@@H]1NC(=O)[C@H](CC(=O)O)NC(=O)[C@]2(CC=CCCCC3(CCCC=CCCCCCC[C@@](C)(C(=O)N[C@@H](Cc4ccccc4)C(=O)N[C@@H](Cc4csc5ccccc45)C(=O)N[C@@H](CCC(N)=O)C(N)=O)NC(=O)[C@H](CCC(N)=O)NC(=O)[C@H](Cc4ccccc4)NC(=O)[C@H](C)NC(=O)[C@H](C)NC(=O)[C@H](Cc4ccc(C(=O)O)cc4)NC(=O)[C@H](CC(=O)O)NC3=O)NC1=O)CCCN2C(C)=O (stereo partly drawn) [I-606, Ac-PL3-Asp-Ile-B5-Asp-4COOHF-Ala-Ala-Phe-Gln-S8-Phe-BztA-Gln-NH2] | 
253 | 253 | 2.416 | 48 (≈ 93.4 µg/mL) |  |  |  |  | CC[C@H](C)[C@@H]1NC(=O)[C@H](CC(=O)O)NC(=O)[C@]2(CC=CCCCC3(CCCC=CCCCCCC[C@@](C)(C(=O)N[C@@H](Cc4ccccc4)C(=O)N[C@@H](Cc4csc5ccccc45)C(=O)N[C@@H](CCC(N)=O)C(N)=O)NC(=O)[C@H](CCC(N)=O)NC(=O)[C@H](Cc4ccccc4)NC(=O)[C@H](C)NC(=O)[C@H](C)NC(=O)[C@H](Cc4ccc(C(=O)O)cc4)NC(=O)[C@H](CC(=O)O)NC3=O)NC1=O)CCCN2C(C)=O (stereo partly drawn) [I-607, Ac-PL3-Asp-Ile-B5-Asp-4COOHF-Ala-Ala-Phe-Gln-S8-Phe-BztA-Gln-NH2] | 
 |  |  | 49 (≈ 93 µg/mL) | 2.41 | > 25 | 64 | 2.4 | CC[C@H](C)[C@@H]1NC(=O)[C@H](CC(=O)O)NC(=O)[C@]2(CC=CCCCC3(CCCC=CCCCCCC[C@@](C)(C(=O)N[C@@H](Cc4ccccc4)C(=O)N[C@@H](Cc4csc5ccccc45)C(=O)N[C@@H](CCC(N)=O)C(N)=O)NC(=O)[C@H](CCC(N)=O)NC(=O)[C@H](Cc4ccccc4)NC(=O)[C@H](C)NC(=O)[C@H](C)NC(=O)[C@H](CCCC(=O)O)NC(=O)[C@H](CC(=O)O)NC3=O)NC1=O)CCCN2C(C)=O (stereo partly drawn) [I-612, Ac-PL3-Asp-Ile-B5-Asp-Aad-Ala-Ala-Phe-Gln-S8-Phe-BztA-Gln-NH2] | 
1630 | 1630 | 2.781 | 10 (≈ 19.1 µg/mL) |  |  |  |  | CC[C@H](C)[C@@H]1NC(=O)[C@H](CC(=O)O)NC(=O)[C@]2(CC=CCCCC3(CCCC=CCCCCCC[C@@](C)(C(=O)N[C@@H](Cc4ccccc4)C(=O)N[C@@H](Cc4csc5ccccc45)C(=O)N[C@@H](CCC(N)=O)C(N)=O)NC(=O)[C@H](CCC(N)=O)NC(=O)[C@H](Cc4ccccc4)NC(=O)[C@H](C)NC(=O)[C@H](C)NC(=O)[C@H](CCCNC(=N)N)NC(=O)[C@H](CC(=O)O)NC3=O)NC1=O)CCCN2C(C)=O (stereo partly drawn) [I-613, Ac-PL3-Asp-Ile-B5-Asp-Arg-Ala-Ala-Phe-Gln-S8-Phe-BztA-Gln-NH2] | 

SMILES | IC50 [1, 4] [nM] | IC50 ([1]; read-out: FP EC50) [nM] | CHI Log D [2] | Solubility [3] [µM] | chromatographic logD ([2]; pH 7.4, CHI Log D) | Solubility ([3]; Solubility (uM)) [µM] | IC50 ([1]; read-out: bCat FP IC50) [nM] | chromatographic logD ([2]; pH 7.4, LogD) | IC50 [1, 5] [nM]
CC[C@H](C)[C@@H]1NC(=O)[C@H](CC(=O)O)NC(=O)[C@]2(CC=CCCCC3(CCCC=CCCCCCC[C@@](C)(C(=O)N[C@@H](Cc4ccccc4)C(=O)N[C@@H](Cc4csc5ccccc45)C(=O)N[C@@H](CCC(N)=O)C(N)=O)NC(=O)[C@H](CCC(N)=O)NC(=O)[C@H](Cc4ccccc4)NC(=O)[C@H](C)NC(=O)[C@H](C)NC(=O)[C@H](CCC(=O)O)NC(=O)[C@H](CC(=O)O)NC3=O)NC1=O)CCCN2C(=O)Cc1ccccc1 (stereo partly drawn) [I-600, Bnc-PL3-Asp-Ile-B5-Asp-Glu-Ala-Ala-Phe-Gln-S8-Phe-BztA-Gln-NH2] |  | 796 | 2.694 | 47 (≈ 92.1 µg/mL) |  |  |  |  | 796
CC[C@H](C)[C@@H]1NC(=O)[C@H](CC(=O)O)NC(=O)[C@]2(CC=CCCCC3(CCCC=CCCCCCC[C@@](C)(C(=O)N[C@@H](Cc4ccccc4)C(=O)N[C@@H](Cc4csc5ccccc45)C(=O)N[C@@H](CCC(N)=O)C(N)=O)NC(=O)[C@H](CCC(N)=O)NC(=O)[C@H](Cc4ccccc4)NC(=O)[C@H](C)NC(=O)[C@H](C)NC(=O)[C@H](CCC(=O)O)NC(=O)[C@H](CC(=O)O)NC3=O)NC1=O)CCCN2C(=O)Cc1ccccc1 (stereo partly drawn) [I-601, Bnc-PL3-Asp-Ile-B5-Asp-Glu-Ala-Ala-Phe-Gln-S8-Phe-BztA-Gln-NH2] |  | 419 | 2.748 | 43 (≈ 84.2 µg/mL) |  |  |  |  | 419
